Laboratory results reported in article PMC5515969, “Effects of 31 FDA approved small-molecule kinase inhibitors on isolated rat liver mitochondria” (Archives of Toxicology, 2016).
Read-outs that look alike come from different tables or passages of the source.

Assays:
RCC IV = RCC IV activity in submitochondrial particles; format: biochemical, rat; set-up: key to RCC IV at 50XCmax / RCC IV at 100XCmax: activity relative to DMSO-treated controls (control set as 1 = 100%); details: 50XCmax, in %
Procedure, shortened: (§1)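 Absorbance kinetics: A340 (RCC I, V) and A600 (RCC II) read each minute over 6 min, A550 (RCC III, IV) every 10 s over 2 min; RCC I taken as […]. Particles (1 mg/ml) pretreated 15 min with compound; DMSO-treated activity = 1.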

[1] = tested on: isolated rat liver mitochondria; assay: Mitochondrial oxygen consumption (glutamate/malate or succinate driven, state 4 and state 3); format: biochemical; details: DMSO treated samples set as 1; for State 3 respiration driven by succinate at 10XCmax: key: 0 indicates that the drug had no effects (negative); for State 3 respiration driven by succinate at 1XCmax: key: 0 indicates that the drug had no effects (negative)
Procedure, shortened: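 Oxygen uptake on glutamate/malate or on succinate defined state 4; ADP added 3 min later gave state 3. Mitochondria isolated from rat liver by differential centrifugation, adjusted to 1 mg/ml and pretreated 5 min with inhibitor (0.1% DMSO final). Values relative to DMSO control, set to 1.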

[2] = ref product labeling, cited from earlier work
[3] = tested on: isolated rat liver mitochondria; assay: Mitochondrial inner membrane potential (MMP), Rhodamine 123; format: biochemical; details: difference in signal between KI and DMSO treated samples at the end of experiments
Text: Fig. 3 KI effects on mitochondrial inner membrane potential (MMP). […] In a, c, data are means and standard derivations from three separate experiments. *p < 0.05 as compared to DMSO-treated samples at the end of experiments. In b, data are means of two independent experiments

[4] = tested on: isolated rat liver mitochondria; details: positive control alamethicin treated samples
[5] = ref product labeling, cited from earlier work; remark: listed apart in the source
[6] = tested on: isolated rat liver mitochondria; assay: Mitochondrial swelling (absorbance at 535 nm); format: biochemical; details: difference in signal between KI and DMSO treated samples at the end of experiments; for Swelling 5XCmax: key: 0 indicates that the drug had no effects (negative)
RCC III = RCC III activity in submitochondrial particles; format: biochemical, rat; set-up: key to RCC III at 100XCmax: activity relative to DMSO-treated controls (control set as 1 = 100%); details: 100XCmax
Procedure, shortened: as §1

[7] = tested on: isolated rat liver mitochondria; assay: Mitochondrial ROS production (CM-H2DCFDA); details: DMSO treated samples set as 1
[8] = relative to DMSO treated samples

Cc1nc(Nc2ncc(C(=O)Nc3c(C)cccc3Cl)s2)cc(N2CCN(CCO)CC2)n1 [dasatinib (free base)]
85.8 ng/mL: Cmax ([5]; therapeutic maximal blood concentration)
0: RCC IV at 50XCmax (RCC IV; [8]) | State 3 respiration driven by glutamate/malate at 1XCmax [1] | State 3 respiration driven by succinate at 1XCmax [1] | State 4 respiration driven by glutamate/malate at 1XCmax [1] | State 4 respiration driven by succinate at 1XCmax [1] | State 3 respiration driven by glutamate/malate at 2.5XCmax [1] | State 3 respiration driven by succinate at 2.5XCmax [1] | State 4 respiration driven by glutamate/malate at 2.5XCmax [1] | State 4 respiration driven by succinate at 2.5XCmax [1] | State 3 respiration driven by glutamate/malate at 5XCmax [1] | State 3 respiration driven by succinate at 5XCmax [1] | State 4 respiration driven by glutamate/malate at 5XCmax [1] | State 4 respiration driven by succinate at 5XCmax [1] | State 3 respiration driven by glutamate/malate at 10XCmax [1] | State 3 respiration driven by succinate at 10XCmax [1] | State 4 respiration driven by glutamate/malate at 10XCmax [1] | State 4 respiration driven by succinate at 10XCmax [1] | State 3 respiration driven by glutamate/malate at 20XCmax [1] | State 3 respiration driven by succinate at 20XCmax [1] | State 4 respiration driven by glutamate/malate at 20XCmax [1] | State 4 respiration driven by succinate at 20XCmax [1] | State 3 respiration driven by glutamate/malate at 30XCmax [1] | State 3 respiration driven by succinate at 30XCmax [1] | State 4 respiration driven by glutamate/malate at 30XCmax [1] | State 4 respiration driven by succinate at 30XCmax [1] | State 3 respiration driven by glutamate/malate at 50XCmax [1] | State 3 respiration driven by succinate at 50XCmax [1] | State 4 respiration driven by glutamate/malate at 50XCmax [1] | State 4 respiration driven by succinate at 50XCmax [1] | State 3 respiration driven by glutamate/malate at 100XCmax [1] | State 3 respiration driven by succinate at 100XCmax [1] | State 4 respiration driven by glutamate/malate at 100XCmax [1] | State 4 respiration driven by succinate at 100XCmax [1] | DILI potential (based on labeling) ([2]; 1 = DILI positive, 0 = negative) | MMP measured by Rhodamine 123 at 1XCmax [3] | MMP measured by Rhodamine 123 at 2.5XCmax [3] | MMP measured by Rhodamine 123 at 5XCmax [3] | MMP measured by Rhodamine 123 at 10XCmax [3] | MMP measured by Rhodamine 123 at 20XCmax [3] | MMP measured by Rhodamine 123 at 30XCmax [3] | MMP measured by Rhodamine 123 at 50XCmax [3] | MMP measured by Rhodamine 123 at 100XCmax [3] | Cytochrome c release 1XCmax [4] | Cytochrome c release 2.5XCmax [4] | Cytochrome c release 5XCmax [4] | Cytochrome c release 10XCmax [4] | Cytochrome c release 20XCmax [4] | Cytochrome c release 30XCmax [4] | Cytochrome c release 50XCmax [4] | Cytochrome c release 100XCmax [4] | Swelling 1XCmax [6] | Swelling 2.5XCmax [6] | Swelling 5XCmax [6] | Swelling 10XCmax [6] | Swelling 20XCmax [6] | Swelling 30XCmax [6] | Swelling 50XCmax [6] | Swelling 100XCmax [6] | RCC III at 100XCmax (RCC III; [8]) | ROS measured by CM-H2DCFDA at 1XCmax [7] | ROS measured by CM-H2DCFDA at 2.5XCmax [7] | ROS measured by CM-H2DCFDA at 5XCmax [7] | ROS measured by CM-H2DCFDA at 10XCmax [7] | ROS measured by CM-H2DCFDA at 20XCmax [7] | ROS measured by CM-H2DCFDA at 30XCmax [7] | ROS measured by CM-H2DCFDA at 50XCmax [7] | ROS measured by CM-H2DCFDA at 100XCmax [7]
0.18 µM: Cmax ([5]; read-out: Cmax at µM, therapeutic maximal blood concentration)

CC(=O)c1c(C)c2cnc(Nc3ccc(N4CCNCC4)cn3)nc2n(C2CCCC2)c1=O.Cl [palbociclib hydrochloride]
0: RCC IV at 50XCmax (RCC IV; DMSO treated samples set as 1) | State 3 respiration driven by glutamate/malate at 1XCmax [1] | State 3 respiration driven by succinate at 1XCmax [1] | State 4 respiration driven by glutamate/malate at 1XCmax [1] | State 4 respiration driven by succinate at 1XCmax [1] | State 3 respiration driven by glutamate/malate at 2.5XCmax [1] | State 3 respiration driven by succinate at 2.5XCmax [1] | State 4 respiration driven by glutamate/malate at 2.5XCmax [1] | State 4 respiration driven by succinate at 2.5XCmax [1] | State 3 respiration driven by glutamate/malate at 5XCmax [1] | State 3 respiration driven by succinate at 5XCmax [1] | State 4 respiration driven by glutamate/malate at 5XCmax [1] | State 4 respiration driven by succinate at 5XCmax [1] | State 3 respiration driven by glutamate/malate at 10XCmax [1] | State 3 respiration driven by succinate at 10XCmax [1] | State 4 respiration driven by glutamate/malate at 10XCmax [1] | State 4 respiration driven by succinate at 10XCmax [1] | State 3 respiration driven by glutamate/malate at 20XCmax [1] | State 3 respiration driven by succinate at 20XCmax [1] | State 4 respiration driven by glutamate/malate at 20XCmax [1] | State 4 respiration driven by succinate at 20XCmax [1] | State 3 respiration driven by glutamate/malate at 30XCmax [1] | State 3 respiration driven by succinate at 30XCmax [1] | State 4 respiration driven by glutamate/malate at 30XCmax [1] | State 4 respiration driven by succinate at 30XCmax [1] | State 3 respiration driven by glutamate/malate at 50XCmax [1] | State 3 respiration driven by succinate at 50XCmax [1] | State 4 respiration driven by glutamate/malate at 50XCmax [1] | State 4 respiration driven by succinate at 50XCmax [1] | State 3 respiration driven by glutamate/malate at 100XCmax [1] | State 3 respiration driven by succinate at 100XCmax [1] | State 4 respiration driven by glutamate/malate at 100XCmax [1] | State 4 respiration driven by succinate at 100XCmax [1] | DILI potential (based on labeling) ([2]; 1 DILI positive, 0 negative according to labeling) | MMP measured by Rhodamine 123 at 1XCmax [3] | MMP measured by Rhodamine 123 at 2.5XCmax [3] | MMP measured by Rhodamine 123 at 5XCmax [3] | MMP measured by Rhodamine 123 at 10XCmax [3] | MMP measured by Rhodamine 123 at 20XCmax [3] | MMP measured by Rhodamine 123 at 30XCmax [3] | MMP measured by Rhodamine 123 at 50XCmax [3] | MMP measured by Rhodamine 123 at 100XCmax [3] | Cytochrome c release 1XCmax [4] | Cytochrome c release 2.5XCmax [4] | Cytochrome c release 5XCmax [4] | Cytochrome c release 10XCmax [4] | Cytochrome c release 20XCmax [4] | Cytochrome c release 30XCmax [4] | Cytochrome c release 50XCmax [4] | Cytochrome c release 100XCmax [4] | Swelling 1XCmax [6] | Swelling 2.5XCmax [6] | Swelling 5XCmax [6] | Swelling 10XCmax [6] | Swelling 20XCmax [6] | Swelling 30XCmax [6] | Swelling 50XCmax [6] | Swelling 100XCmax [6] | RCC III at 100XCmax (RCC III) | ROS measured by CM-H2DCFDA at 1XCmax [7] | ROS measured by CM-H2DCFDA at 2.5XCmax [7] | ROS measured by CM-H2DCFDA at 5XCmax [7] | ROS measured by CM-H2DCFDA at 10XCmax [7] | ROS measured by CM-H2DCFDA at 20XCmax [7] | ROS measured by CM-H2DCFDA at 30XCmax [7] | ROS measured by CM-H2DCFDA at 50XCmax [7] | ROS measured by CM-H2DCFDA at 100XCmax [7]
0.116 µg/mL: Cmax (ng or µg/ml) ([5]; human therapeutic maximal blood concentration)
0.24 µM: Cmax ([5]; read-out: Cmax at µM, human therapeutic maximal blood concentration)
